Experiments:
Type in all cases: biochemical
IAPP [1] = molecular target: T1, IAPP (Homo sapiens, UniProt P10997); assay: Rate of fibril formation by Thioflavine T spectroscopy (Example 5); conditions: thioflavine T assay
T1 sequence (P10997 34-70 limits assumed): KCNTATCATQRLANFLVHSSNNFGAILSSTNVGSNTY
Experimental: Determination of the Rate of Fibril Formation by Thioflavine T Spectroscopy
This can be used as a sensitive assay for fibril formation under different conditions. This assay has been used in experiments to determine the effects of some candidate compounds on fibril formation.
Human IAPP was dissolved in 40% Trifuoroethanol and freeze dried into convenient sized aliquots. IAPP (1 mg/ml) was prepared immediately before the measurement by dissolving in 40% HFIP in water to maintain the peptide in alpha confirmation and soluble. A stock solution of Thioflavine T (2.5 mM) was prepared 7.9 mg in 10 ml Tris pH 7.0 and filtered (0.22 micron). Solutions were kept in dark until use. Fluorescence was examined at 440 nm excitation (slit 5 nm), and Emission at 482 nm (Slit 10 nm) with stirring. Twenty five microlitres of Th-T stock (final conc 62.5 μM) was added to peptide sample (8 μg/ml) and made up to 1 ml in the cuvette. The sample was stirred for 5 min before taking a reading. Measurements were made at an initial time points (5 mins from sample preparation) and at intervals over the next 4-6 h after overnight incubation at room temp with and without candidate compound (vi) and a compound known to accelerate fibril formation, polyvinylsulphonate.

Human IAPP (hIAPP) = molecular target: T2, Human IAPP (hIAPP) (Homo sapiens, UniProt P10997); assay: ELISA assay for quantitative determination of fibril formation (Example 4)
T2 construct: Human IAPP (hIAPP) was synthesised by solid state synthesis (Advanced Biotechnologies, UK); purchased Advanced Biotechnologies, UK; host or cells: chemical solid-phase synthesis
T2 sequence (P10997 34-70 limits assumed): T1 sequence (P10997 34-70 limits assumed)
Experimental: ELISA Assay for Quantitative Determination of Fibril Formation
Human IAPP (hIAPP) was synthesised by solid state synthesis (Advanced Biotechnologies, UK). Human IAPP forms fibrils immediately in aqueous media. Aliquots of IAPP in water (800 μg/ml) were stored frozen at −20° C. until use. These samples contain small numbers of fibrils visible with electron microscopy (em).
Two sets of samples containing IAPP (20 μM) with or without inhibitors (at a molar ratio of 10:1 with IAPP, (20 μM)) were prepared on day 1 in Tris buffer. One set was centrifuged, the supernatant removed and frozen immediately at −20° C. (Time zero time point). The other set was incubated overnight at room temp with shaking (time 24 h time point). On day 2 these samples were spun and supernatant removed to determine the proportion of non-fibrillar IAPP.
To assay IAPP in the supernatant both sets of samples were serially diluted in bicarbonate coating buffer, added to ELISA wells and incubated overnight. Plates were washed in phosphate buffer containing Tween (PBS/Tw)×3. Diluted antiserum raised against human IAPP was incubated on the plate for 90 minutes at 37° C. Following washing in PBS/Tw, alkaline phosphatase conjugated anti-rabbit antisera was incubated for 90 mins. Following washing in PBS/Tw, alkaline phosphate substrate was added and colour allowed to develop for 30 mins. Optical density was read at 405 nm.
Data from all samples was calculated to determine changes of IAPP concentration in the supernatant induced by the candidate substance immediately (i.e. at time zero) or after 24 h incubation. Data in FIG. 1 is expressed as the proportion of non-fibrillar IAPP in the supernatant of test samples compared to control at both time points.

IAPP [2] = molecular target: T1, IAPP; assay: Circular dichroism analysis of β-sheet conformation (Example 2); design: add 10 μL of 10 mg/mL IAPP stock solution (final 100 μg peptide); conditions: changes in ellipticity at 218 nm (β-sheet conformation); peptide:compound 1:10
Experimental: Circular dichroism analysis was conducted to confirm the activity of certain therapeutic compounds in preventing or inhibiting IAPP-associated fibril formation in accordance with the present disclosure by determining the presence or absence of β-sheet conformation.
The assay, a co-incubation procedure, examines the ability of a compound or substance to inhibit the assembly of amyloid fibrils, e.g., to test for the presence of the amyloidotic b-sheet conformation in the presence of soluble IAPP. Samples are run in the presence and absence (i.e., water alone) of buffering agent, which is done to determine if competitive effects are seen with the ionic buffer (usually phosphate).
Add components used at a molar ratio of 1:10 [peptide:compound]; add 10 μL of 10 mg/mL IAPP stock solution (final 100 μg peptide) to the aqueous solution containing compound to a final volume of 400 μl. The pH of the final assay solution is measured to ensure there is no fluctuation and the spectrum is accumulated using the parameters as shown above.
Add desired amount of compound to achieve a 1:10 molar ratio in 10 mM phosphate buffer, pH 7. Add 10 μL of 10 mg/mL IAPP stock solution (final peptide 100 μg) to the phosphate buffered solution containing the compound and bring to a final volume of 400 μL. The pH of the final assay solution is measured to ensure there is no fluctuation and the spectrum is accumulated using the parameters as shown above.
In both assays, a control sample is run with each test group. This control contains peptide only in water or buffer at a similar final volume of 400 μl. Spectra for the control are collected initially (first run) and at the end of the test (final run) to ensure that the peptide has not undergone extensive aggregation during the course of the assay. Spectra for the controls are used to compare with the measurements obtained with the treated samples.
Make fresh 1 mg/mL stock solution of IAPP in 10 mM phosphate buffer, pH 7. Add desired amount of compound to achieve a 1:10 molar ratio in 10 mM phosphate buffer, pH 7. Incubate for 3 days at room temperature. Make up to final volume of 400 μL with 10 mM phosphate buffer, pH 7. The pH of the final assay solution is measured to ensure there is no fluctuation and the spectrum is accumulated using the parameters as shown above. A similar control is run for comparative purposes.
Plots of the spectra (control and treated) are individually assembled and the changes in ellipticity at 218 nm are examined. This minimum is directly correlated with the amount of peptide in β-sheet conformation present in the sample. Changes in either a positive or negative direction are noted and a relative value (“active” or “not active”) assigned to the compound as a measure of activity.

IAPP [3] = molecular target: T1, IAPP; assay: Rate of amyloid fibril formation by Thioflavine T spectroscopy (Example 1); conditions: Thioflavine T fluorescence
Experimental: Determination of the Rate of Amyloid Fibril Formation by Thioflavine T Spectroscopy
Detection of ThT fluorescence can be used as a sensitive assay for amyloid fibril formation under different conditions. This assay has been used in experiments to determine the effects of compounds of the invention on amyloid fibril formation.
Human IAPP was dissolved in 40% trifluoroethanol and freeze-dried into conveniently-sized aliquots. IAPP was prepared immediately before the measurements by dissolving in 40% 1,1,1,3,3,3-hexafluoro-2-propanol (HFIP) in water to maintain the peptide in alpha helical conformation and soluble. A stock solution of ThT (2.5 mM) was prepared, 7.9 mg in 10 mL Tris-HCl pH 7.0 and filtered (0.22 μm). Solutions were kept in the dark until use. Fluorescence was examined at 440 nm excitation (slit 5 nm), and emission at 482 nm (slit 10 nm) with stirring. […] of ThT stock (final concentration 62.5 μM) was added to peptide sample and made up to 1 mL in the cuvette. The sample was stirred for 5 min. before taking a reading. Measurements were made at an initial time point (5 min. from sample preparation), at intervals over the next 4-6 h and after overnight incubation at room temperature.

IAPP fibrils = molecular target: T3, IAPP fibrils (Homo sapiens, UniProt P10997); assay: Morphological characteristics of IAPP fibrils by transmission electron microscopy (Example 10); conditions: incubated 48 h, compared with IAPP alone
T3 sequence (P10997 34-70 limits assumed): T1 sequence (P10997 34-70 limits assumed)
Experimental: Morphological Characteristics of IAPP Fibrils Formed in Mixtures with Candidate Compounds.
IAPP prepared as in Example 3 was incubated with candidate compounds for 48 h Samples were then examined by transmission electron microscopy for the presence of fibrils. […] Long and short unbranching fibrils were present.

SMILES: O=C(O)C(F)(F)C(F)(F)C(F)(F)C(=O)O [vi, Hexafluoroglutaric acid]
- time for which the reduced fluorescence level was stable (IAPP [1]): up to 15 hrs
- fluorescence units (IAPP [1]; compared with IAPP alone): reduced fluorescence below the level recorded for IAPP alone
- proportion of non-fibrillar IAPP in the supernatant (Human IAPP (hIAPP); IAPP 20 μM, inhibitor:IAPP molar ratio 10:1, compared to control): increase the proportion of non-fibrillar IAPP in the supernatant
- time point at which the increase of non-fibrillar IAPP was greater (Human IAPP (hIAPP); time zero versus time 24 h): greater at time zero
- Activity (IAPP [2]): Active
- IAPP-associated fibril assembly (IAPP [3]): inhibit or prevent IAPP-associated fibril assembly
- presence and morphology of fibrils (IAPP fibrils): contained fewer fibrils which were apparently short and long and not aggregated

From patent publication US20070015737A1, “Compounds for inhibiting diseases and preparing cells for transplantation” (Neurochem (International) Limited, priority 1999, published 2007)
